Reference: US20040081972A1, “Novel physiologically active peptide and use thereof” (priority 2000, published 2004)

Experiments:
Type in all cases: cell-based
Settings in all cases: final concentration 1 μmol/l
[1] = tested on: adrenal gland of an apoaequorin transgenic mouse; test: Intracellular calcium (aequorin luminescence) in adrenal gland pieces of apoaequorin transgenic mouse
Procedure: (§1) In order to evaluate physiological activities of the peptides prepared in Example 1, the prepared peptides were allowed to act upon organs excised from the living body, and changes in the concentration of an intracellular signal transduction substance in cells constituting the organs were measured.
(§2) In order to measure changes in the concentration of an intracellular signal transduction substance in cells constituting the organs, a transgenic mouse prepared by integrated an apoaequorin gene expression vector into a chromosome was used. Specifically, a female mouse derived from the transgenic mouse disclosed in Reference Example 4 as an individual number 98075-04-6 was used in the test. […]
(§3) Aequorin is a bioluminescent protein complex which is present in the umbrella region of luminescent Aequorea victoria. Aequorin is constituted from its protein moiety apoaequorin, its luminescence substrate coelent razin and molecular oxygen, and emits light by its binding with calcium ion. […]
(§4) Organs were prepared from offsprings borne from the female of individual number 98075-04-6 to examine the activities of the peptides produced in Example 1. […] Five hours after, various substances shown below dissolved in RPMI 1640 medium were added at 200 μl, and the luminescence was measured just after the addition at 1 second intervals using a luminometer AutoLumat LB953 (manufactured by BERTHOLD).

[2] = tested on: blood vessel of an apoaequorin transgenic mouse; test: Intracellular calcium (aequorin luminescence) in blood vessel pieces of apoaequorin transgenic mouse
Procedure: as §1
In order to measure changes in the concentration of an intracellular signal transduction substance in cells constituting the organs, a transgenic mouse prepared by integrated an apoaequorin gene expression vector into a chromosome was used. Specifically, a female mouse derived from the transgenic mouse disclosed in Reference Example 4 as an individual number 98075-04-6 was used in the test. The transgenic mouse was prepared and reared as an SPF animal in a clean room, and was not contaminated with pathogens including mouse hepatitis virus, Sendai virus, mycoplasma and Tyzzer bacterium.
Aequorin is a bioluminescent protein complex which is present in the umbrella region of luminescent Aequorea victoria. Aequorin is constituted from its protein moiety apoaequorin, its luminescence substrate coelent razin and molecular oxygen, and emits light by its binding with calcium ion. Since expression of the apoaequorin protein has been confirmed in at least thymus, spleen, abdominal muscle, diaphragm, kidney, crystalline lens, pancreas, fat tissue, liver, skull, blood vessel, ovary, womb and adrenal gland of the transgenic mouse used in the test, it was able to monitor changes in the intracellular calcium ion concentration in these organs with a high sensitivity.
Organs were prepared from offsprings borne from the female of individual number 98075-04-6 to examine the activities of the peptides produced in Example 1. After the offsprings were killed, the thymus, spleen, abdominal muscle, diaphragm, kidney, crystalline lens, pancreas, fat tissue, liver, skull, blood vessel, ovary, womb and adrenal gland were excised. Each of the excised organs was cut into small cubes of about 1 to 2 mm square in PBS containing 10 units/ml of heparin sodium and thoroughly washed by changing the solution. Next, three pieces of each of the organ samples thus prepared were put into a 5 ml capacity tube (Rohren-Tubes; No. 55.476, manufactured by Sarstedt) which had been charged with RPMI 1640 medium containing 200 μl of 10 μmol/l coelenterazine (manufactured by Molecular Probes), and cultured at 37° C. for 5 hours. Five hours after, various substances shown below dissolved in RPMI 1640 medium were added at 200 μl, and the luminescence was measured just after the addition at 1 second intervals using a luminometer AutoLumat LB953 (manufactured by BERTHOLD).

[3] = tested on: womb of an apoaequorin transgenic mouse; test: Intracellular calcium (aequorin luminescence) in womb pieces of apoaequorin transgenic mouse
Procedure: as §1, §2, §3, §4

Measured: luminescence (intracellular calcium increase)

angiotensin II [purchased from Research Biochemicals International (product code: A-151)]
Strong luminescence: all assays above
